In this experiment the target is mGluR4 (Homo sapiens, UniProt Q14833). The experiment is described as follows: mGlu4 PAM potentiation assay, CHO cells transfected with human mGluR4, Ca2+-sensitive dye fluorescence. In kind it is cell-based. The protocol: The disclosed compounds and compositions can be evaluated for their ability to act as a potentiator of metabotropic glutamate receptor activity, in particular mGluR4 activity, by any suitable known methodology known in the art. For example, Chinese Hamster Ovary (CHO) cells transfected with human mGluR4 or HEK cells co-transfected with rat mGluR4 and the G-protein regulated Inwardly Rectifying Potassium channel (GIRK) were plated in clear bottom, assay plates for assay in a Hamamatsu FDSS Fluorometric Plate Reader. The cells were loaded with either a Ca2+-sensitive fluorescent dye or the thallium responsive dye and the plates were washed and placed into a suitable kinetic plate reader. For human mGluR4 assays, a fluorescence baseline was established for 3-5 seconds, the disclosed compounds were then added to the cells, and the response in cells was measured. Approximately two and a half minutes later, a concentration of mGluR4 orthosteric agonist (e.g. glutamate, L-AP4, or L-SOP) eliciting approximately 20% (EC20) of the maximal agonist response was added to the cells, and the response was measured. Two minutes later, a concentration of mGluR4 agonist (e.g. glutamate, L-AP4, or L-SOP) eliciting 80% (EC80) of the maximal agonist response was added to the cells, and the response was measured. For rat mGluR4/GIRK experiments, a baseline was established for approximately five seconds, disclosed compounds were added, and either an EC20 or EC80 concentration of agonist was added approximately two and one half minutes later. Potentiation or antagonism of the agonist response of mGluR4 by the disclosed compounds was observed as an increase or decrease in response to the EC20 concentration of agonist in the presence of compound compared to the response to agonist in the absence of compound. Similarly, potentiation or antagonism of the agonist response of mGluR4 by the disclosed Compounds was observed as an increase or decrease in response to the EC80 concentration of agonist in the presence of compound compared to the response to agonist in the absence of compound.
The above described assay operated in two modes. In the first mode, a range of concentrations of the disclosed compounds are added to cells, followed by a single fixed concentration of agonist. If the compound acts as a potentiatior, an EC50 value for potentiation and a maximum extent of potentiation by the compound at this concentration of agonist is determined by non-linear curve fitting. If the compound acts as an antagonist, an IC50 value is determined by non-linear curve fitting. In the second mode, several fixed concentrations of the disclosed compounds are added to various wells on a plate, followed by a range in concentrations of agonist for each concentration of disclosed compound. The EC50 values for the agonist at each concentration of compound are determined by non-linear curve fitting. A decrease in the EC50 value of the agonist with increasing concentrations of the sample compound (a leftward shift of the agonist concentration-response curve) is an indication of the degree of mGluR4 potentiation at a given concentration of the sample compound. A decrease in the maximal response of the agonist with increasing concentrations of the sample compounds, with or without a rightward shift in agonist potency, is an indication of the degree of antagonism at mGluR4. The second mode also indicates whether the sample compounds also affect the maximum response to mGluR4 to agonists.

Chain of mGluR4 (Q14833 33-912 limits assumed): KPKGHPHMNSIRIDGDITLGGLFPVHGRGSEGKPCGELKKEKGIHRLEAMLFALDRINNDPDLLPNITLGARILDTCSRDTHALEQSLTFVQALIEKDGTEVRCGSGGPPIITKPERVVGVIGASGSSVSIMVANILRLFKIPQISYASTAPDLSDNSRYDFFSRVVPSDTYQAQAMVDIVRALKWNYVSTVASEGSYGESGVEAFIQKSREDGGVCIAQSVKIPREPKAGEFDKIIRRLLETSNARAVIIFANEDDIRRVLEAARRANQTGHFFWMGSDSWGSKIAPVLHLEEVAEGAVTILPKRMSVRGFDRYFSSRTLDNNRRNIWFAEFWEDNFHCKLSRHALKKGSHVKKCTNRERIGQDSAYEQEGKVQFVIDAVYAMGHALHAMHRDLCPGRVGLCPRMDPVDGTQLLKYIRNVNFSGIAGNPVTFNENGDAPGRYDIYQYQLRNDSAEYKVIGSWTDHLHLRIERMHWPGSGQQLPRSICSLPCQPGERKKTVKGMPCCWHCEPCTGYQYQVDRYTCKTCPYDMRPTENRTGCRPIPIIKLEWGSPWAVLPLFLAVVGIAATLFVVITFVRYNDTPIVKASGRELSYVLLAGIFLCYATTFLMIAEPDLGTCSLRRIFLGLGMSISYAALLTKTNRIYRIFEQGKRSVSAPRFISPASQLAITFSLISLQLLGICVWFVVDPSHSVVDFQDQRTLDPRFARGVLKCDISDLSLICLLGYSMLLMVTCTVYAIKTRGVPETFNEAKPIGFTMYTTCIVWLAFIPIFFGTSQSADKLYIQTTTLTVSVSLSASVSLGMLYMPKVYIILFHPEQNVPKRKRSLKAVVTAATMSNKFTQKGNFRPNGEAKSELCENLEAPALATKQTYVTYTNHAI

Take `CO[C@H](C)COc1nccc2cc(NC(=O)c3ccccn3)ccc12` [Compound 6]: the EC50 (in general, the concentration that produces a half-maximal response) was found to be 166 nM.
With `O=C(Nc1ccc2c(OCC3COCCO3)nccc2c1)c1cccc(F)n1` (stereo not drawn) [Compound 118], the EC50 came out at 216 nM.
On to `COCCOc1nccc2cc(NC(=O)c3ccccn3)ccc12` [Compound 20], for which the EC50 amounted to 739 nM.
As for `CC(C)(C)OCCOc1nccc2cc(NC(=O)c3ccccn3)ccc12` [Compound 28], the EC50 is 419 nM.
The value for `O=C(Nc1ccc2c(OCC3CCOCC3)nccc2c1)c1ccc(F)cn1` [Compound 105] was 34.1 nM.
In the case of `COCCOc1nccc2cc(NC(=O)c3ncccc3N)ccc12` [Compound 21] it was 227 nM; in that of `O=C(Nc1ccc2c(OCC3CCOC3)nccc2c1)c1ncccc1O` (stereo not drawn) [Compound 17], 56.3 nM.
In the case of `O=C(Nc1cc(F)c2c(OCC3CCOC3)nccc2c1)c1ccccn1` (stereo not drawn) [Compound 78] it was 39.3 nM; in that of `O=C(Nc1ccc2c(OCC3CCOC3)nccc2c1)c1ccccn1` (stereo not drawn) [Compound 15], 59.5 nM; in that of `O=C(Nc1ccc2c(OCC3CCOC3)nccc2c1)c1ncccc1Cl` (stereo not drawn) [Compound 19], 339 nM.
Consider `O=C(Nc1cc(F)c2c(OCC3COCCO3)nccc2c1)c1ccc(F)cn1` (stereo not drawn) [Compound 93], for which the EC50 was 302 nM.
The value for `O=C(Nc1ccc2c(OCc3ccncc3)nccc2c1)c1ccc(F)cn1` [Compound 115] was 100 nM; that for `Nc1cccnc1C(=O)Nc1ccc2c(O[C@H]3CCOC3)ncc(F)c2c1` [Compound 71] was 493 nM.
For `CC(C)OCCOc1nccc2cc(NC(=O)c3ccccn3)ccc12` [Compound 26], the EC50 is 264 nM.
Regarding `O=C(Nc1ccc2c(OCC3CCOC3)nccc2c1)c1ccsn1` (stereo not drawn) [Compound 57], the EC50 was determined as 159 nM.
Regarding `Nc1cccnc1C(=O)Nc1ccc2c(OCC3CCOCC3)ncc(F)c2c1` [Compound 66], the concentration giving a half-maximal response (EC50) turned out to be 152 nM.
The value for `O=C(Nc1ccc2c(OCC3CCOC3)nccc2c1)c1nc(F)ccc1F` (stereo not drawn) [Compound 74] was 800 nM; that for `CC(C)(C)OCCOc1nccc2cc(NC(=O)c3ncccc3N)ccc12` [Compound 29] was 794 nM; that for `O=C(Nc1ccc2c(OCC3CCOC3)nccc2c1)c1ncc(F)cc1F` (stereo not drawn) [Compound 73] was 992 nM.
In the case of `CCOCCOc1nccc2cc(NC(=O)c3ccccn3)ccc12` [Compound 3] it was 436 nM.
The value for `O=C(Nc1ccc2c(OCC3CCOCC3)nccc2c1)c1cccc(F)n1` [Compound 109] was 91.5 nM.
As to `CC1COCC1COc1nccc2cc(NC(=O)c3ncccc3N)ccc12` (stereo not drawn) [Compound 47], the EC50 was determined as 456 nM.
In the case of `O=C(Nc1ccc2c(OCC3CCCCO3)nccc2c1)c1ccccn1` (stereo not drawn) [Compound 8], the EC50 came out at 159 nM.
The value for `CO[C@@H](C)COc1nccc2cc(NC(=O)c3ccccn3)ccc12` [Compound 51] was 364 nM; that for `O=C(Nc1ccc2c(OCC3CCOC3)nccc2c1)c1ccc(F)cn1` (stereo not drawn) [Compound 72] was 211 nM; that for `CCOCCOc1nccc2cc(NC(=O)c3ncccc3N)ccc12` [Compound 4] was 354 nM.
In the case of `CC1(C)CC(COc2nccc3cc(NC(=O)c4ncccc4N)ccc23)CO1` (stereo not drawn) [Compound 49] it was 665 nM; in that of `CC1(C)CC(COc2nccc3cc(NC(=O)c4ncccc4N)ccc23)CCO1` (stereo not drawn) [Compound 35], 227 nM.
In the case of `CC1(C)CC(Oc2nccc3cc(NC(=O)c4ccccn4)ccc23)C(C)(C)O1` (stereo not drawn) [Compound 36] it was 940 nM.
Consider `O=C(Nc1ccc2c(OCC3CCOC3)nccc2c1)c1ccc(Cl)cn1` (stereo not drawn) [Compound 85], for which the EC50 was found to be 615 nM.
Take `Nc1cccnc1C(=O)Nc1cnc2c(OCC3CCOCC3)nccc2c1` [Compound 121]: the EC50 was found to be 116 nM.
With `O=C(Nc1ccc2c(Oc3ccncc3)nccc2c1)c1ccc(F)cn1` [Compound 113], the EC50 worked out at 608 nM.
In the case of `O=C(Nc1ccc2c(OCC3CCOC3)nccc2c1)c1cccc(Cl)n1` (stereo not drawn) [Compound 86] it was 619 nM; in that of `O=C(Nc1ccc2c(OCC3COCCO3)ncc(F)c2c1)c1ccccn1` (stereo not drawn) [Compound 69], 421 nM.
In the case of `CC1(C)CC(COc2nccc3cc(NC(=O)c4ccccn4)ccc23)CO1` (stereo not drawn) [Compound 48] it was 452 nM; in that of `O=C(Nc1ccc2c(OCC3COCCO3)nccc2c1)c1ccc(F)cn1` (stereo not drawn) [Compound 119], 285 nM.
The value for `CC1(C)CC(Oc2nccc3cc(NC(=O)c4ncccc4F)cc(F)c23)CCO1` (stereo not drawn) [Compound 101] was 120 nM.
As for `O=C(Nc1ccc2c(OC3CCOCC3)nccc2c1)c1ncccc1O` [Compound 14], the EC50 was 331 nM.
In the case of `Nc1cccnc1C(=O)Nc1ccc2c(OCC3CCOC3)ncc(F)c2c1` (stereo not drawn) [Compound 63] it was 88.7 nM; in that of `O=C(Nc1cc(F)c2c(OCC3CCOCC3)nccc2c1)c1ncccc1C(F)(F)F` [Compound 98], 978 nM; in that of `O=C(Nc1ccc2c(OCC3CCOC3)nccc2c1)c1ncc(F)cc1Cl` (stereo not drawn) [Compound 88], 910 nM.
As to `O=C(Nc1cnc2c(OCC3CCOCC3)nccc2c1)c1ccc(F)cn1` [Compound 122], the concentration giving a half-maximal response (EC50) worked out at 454 nM.
In the case of `CC1CC(Oc2nccc3cc(NC(=O)c4ncccc4O)ccc23)CCO1` (stereo not drawn) [Compound 45], the EC50 is 447 nM.
In the case of `O=C(Nc1cc(F)c2c(OCC3CCOC3)nccc2c1)c1nc(F)ccc1F` (stereo not drawn) [Compound 84] it was 172 nM; in that of `O=C(Nc1ccc2c(O[C@H]3CCOC3)nccc2c1)c1ncccc1O` [Compound 11], 883 nM; in that of `CC1(C)CC(Oc2nccc3cc(NC(=O)c4ncccc4N)cc(F)c23)CCO1` (stereo not drawn) [Compound 106], 127 nM.
For the compound `CCOCCOc1nccc2cc(NC(=O)c3ncccc3O)ccc12` [Compound 5], the EC50 came out at 229 nM.
The value for `O=C(Nc1ccc2c(OC3CCOCC3F)nccc2c1)c1ccccn1` (stereo not drawn) [Compound 40] was 183 nM.
In the case of `Nc1cccnc1C(=O)Nc1cc(F)c2c(OCC3COCCO3)nccc2c1` (stereo not drawn) [Compound 91] it was 94 nM.
The value for `CC1(C)CC(Oc2nccc3cc(NC(=O)c4ncccc4O)ccc23)CCO1` (stereo not drawn) [Compound 25] was 147 nM; that for `CC1COCC1COc1nccc2cc(NC(=O)c3ccccn3)ccc12` (stereo not drawn) [Compound 46] was 339 nM; that for `CC1(C)COCCC1Nc1nccc2cc(NC(=O)c3ncccc3N)ccc12` (stereo not drawn) [Compound 77] was 922 nM.
As to `O=C(Nc1ccc2c(OCC3CCOCC3)ncc(F)c2c1)c1ncccc1O` [Compound 67], the EC50 is 246 nM.
The value for `O=C(Nc1ccc2c(OCC3CCOC3)nccc2c1)c1ncc[nH]1` (stereo not drawn) [Compound 58] was 217 nM.

For the origin of these results see patent publication US11319304B2, “Pyridine quinoline compounds as MGLUR4 allosteric potentiators, compositions, and methods of treating neurological dysfunction” (Vanderbilt University, priority 2017, dated 2022).
